Data taken from PMC6158767, “Vistusertib (dual m-TORC1/2 inhibitor) in combination with paclitaxel in patients with high-grade serous ovarian and squamous non-small-cell lung cancer” (Annals of Oncology, 2018).
Like-named read-outs stand apart in the source and are kept apart here.

Columns and labels:
[1] = tested on: Ser^473 p-AKT in platelet-rich plasma; assay: Phosphorylation of AKT (Ser473) in platelet-rich plasma, MSD electrochemiluminescent immunoassay; format: in vivo, human
Description: Figure 1. Pharmacodynamic profile of vistusertib at 50 mg bd 3/7. Phosphorylation of AKT (Ser473) in platelet-rich plasma was quantified using MSD electrochemiluminescent immunoassays and normalised to corresponding total AKT values. Baseline values were established prior to the start of treatment. On C1D1, only paclitaxel (80 mg/m^2) was administered and a non-significant rise in p-ATK at 4 h following treatment was noted. […] On C1D8, the combination of paclitaxel and vistusertib was administered, which caused a significant reduction of p-AKT compared with baseline. Points represent individual patients, orange line represents mean of up to N = 6 patients. Four samples were excluded because of haemolysis, which interfered with the assay (*P<0.05; paired t-test).
pAkt was assessed in platelet rich plasma (PRP) using a sandwich immunoassay as per manufacturer’s instructions (K11100D, Meso Scale Discovery, Maryland, USA) which consisted of a multiplex assay with plates pre-coated with phospho(Ser473) Akt and total Akt capture antibodies. These plates were blocked for 1 hour, incubated with sample for 1 hour, and finally incubated with an anti-total Akt detection antibody conjugated to MSD-SULFO-TAG for 1 hour before being detected on a Meso Scale Discovery Sector Imager 6000 using electrochemiluminescence in order to determine the percentage of Akt phosphorylated. During validation the inter-assay precision ranged from 6.75 to 7.17%.

[2] = Pharmacokinetic sampling (plasma, LC-MS/MS) in the dose-escalation arm; details: paclitaxel with vistusertib
Description: (§3) This method is applicable to the analysis of AZD2014 in human plasma treated with K2EDTA anticoagulant. AZD2014 and the internal standard (ISTD), 13C22H2AZ12729279 are extracted from human plasma by solid-phase extraction (SPE). After evaporation under nitrogen, the residue is reconstituted and analysed using liquid chromatography (LC) with tandem mass spectrometric detection (MS/MS). The standard curve range is from 20.0 to 20,000 ng/mL for AZD2014, using a plasma sample volume of 0.0250 mL.

[3] = tested on: sqNSCLC; assay: RECIST response in the dose-escalation cohort; format: in vivo, human; details: vistusertib + weekly paclitaxel
Description: (§1) RECIST v1.1 was used to assess tumour response supported by GCIG CA125 response in patients with HGSOC. Response was assessed at the end of every 7-week cycle.

[4] = tested on: patients; assay: Toxicity (NCI-CTCAE V4.0), whole study: hyperglycaemia incidence; details: vistusertib + weekly paclitaxel
[5] = clinical; details: human, in vivo, geometric mean; for AUC(0-t): AUClast of vistusertib; for Cmax: Cmax of vistusertib; for half-life: HL Lambda_z (half-life) of vistusertib
Description: as §3

[6] = parameters: method as in PMID 23375793, PMID 25805799; details: cited from earlier work
[7] = tested on: squamous non-small-cell lung cancer (sqNSCLC); assay: Squamous lung cancer expansion: RECIST v1.1 response and progression-free survival; format: in vivo, human
Description: as §1
(§2) Progression-free survival was estimated by the Kaplan–Meier method, beginning on the day of the first dose (C1D1) and continuing until disease progression. Patients who came off study for reasons other than disease progression (clinical or RECIST) were censored. This study is registered with ClinicalTrials.gov, identifier: NCT02193633.

[8] = tested on: high-grade serous ovarian cancer (HGSOC); assay: Ovarian cancer expansion: RECIST v1.1 / GCIG CA125 response and progression-free survival; format: in vivo, human
Description: as §1, §2
Twenty-seven patients with relapsed/refractory HGSOC were treated at the RP2D. Two patients were replaced as per protocol and were not considered for assessment of response. The median number of previous treatments was three: the majority (26/27; 96%) of patients having received paclitaxel and 3/27 patients (11%) having previously received weekly paclitaxel (supplementary Table S2, available at Annals of Oncology online). The RECIST and CA125 response rates were 13/25 (52%) and 16/25 (64%), respectively (Figure 2A). The mPFS was 5·8 months (95% CI: 3.3–18.5).

[9] = in vivo
Description: as §3

[10] = tested on: patients with advanced solid tumours; assay: Toxicity (NCI-CTCAE V4.0), DLT and MTD in the dose-escalation cohort, vistusertib with weekly paclitaxel 80 mg/m^2
Description: The dose of paclitaxel administered was 80 mg/m^2 once weekly for 6/7 weeks in a 7-week cycle. In the first week of the dose-escalation cohorts, patients received only paclitaxel on C1D1, then vistusertib on C1D3 to allow for PK and PD samplings. Patients then received weekly paclitaxel (on days 8, 15, 22, 29, and 36) with vistusertib, also starting on days 8, 15, 22, 29, and 36, given orally twice daily either for three consecutive days per week (schedule A: 3/7 days, 6/7 weeks) or two consecutive days per week (schedule B: 2/7 days, 6/7 weeks). In the dose expansion, schedule A was taken forward with patients dosing with vistusertib weekly on days 1–3 for 6 weeks of a 7-week cycle.

[11] = tested on: ovarian cancer models; parameters: method as in PMID 29371953; details: in vitro and in vivo; cited from earlier work
[12] = tested on: patients with sqNSCLC; assay: Toxicity (NCI-CTCAE V4.0) in the squamous non-small cell lung cancer expansion cohort
Description: Patients administered with 80 mg/m^2 paclitaxel with 50 mg vistusertib bd 3/7 days for 6/7 weeks, dosing starting concurrently on day 1 of each week
Patients administered with 80 mg/m^2 paclitaxel with 25 mg vistusertib bd 3/7 days for 6/7 weeks, dosing starting concurrently on day 1 of each week treated at paclitaxel 80 mg/m^2/week and vistusertib 25 mg bd 3/7.

[13] = sqNSCLC expansion, 25 mg cohort
[14] = sqNSCLC expansion, 25 mg vistusertib bd 3/7 days + paclitaxel 80 mg/m^2
[15] = HGSOC expansion, 50 mg vistusertib bd 3/7 days + paclitaxel 80 mg/m^2
[16] = HGSOC expansion, 50 mg vistusertib bd 3/7 days + paclitaxel 80 mg/m^2, 25 patients
[17] = Lung Expansion 25 mg + paclitaxel (N=24), all grades
[18] = Lung Expansion 50 mg + paclitaxel (N=17), all grades

With `CC(=O)O[C@H]1C(=O)[C@@]2(C)[C@H]([C@H](OC(=O)c3ccccc3)[C@]3(O)C[C@H](OC(=O)[C@H](O)[C@@H](NC(=O)c4ccccc4)c4ccccc4)C(C)=C1C3(C)C)[C@]1(OC(C)=O)CO[C@@H]1C[C@@H]2O` [paclitaxel] the “Increase in Ser^473 p-AKT levels in PRP” value ([1]; 4 h following 80 mg/m^2 paclitaxel alone (C1D1), P = 0.14, statistically non-significant) was 1.4 fold and the “Drug-drug PK interaction on drug exposure, combination versus either agent alone” value [2] was “no drug-drug PK interaction”.
For `CNC(=O)c1cccc(-c2ccc3c(N4CCOC[C@@H]4C)nc(N4CCOC[C@@H]4C)nc3n2)c1` [vistusertib], the “Partial responses in patients with sqNSCLC” value [3] was “two partial responses”, the “Ser^473 p-AKT lower than corresponding time-point following paclitaxel alone” value ([1]; 4 h, vistusertib 50 mg bd 3/7 + paclitaxel) was 62% and the “Ser^473 p-AKT in PRP, % of pre-dose levels” value ([1]; 4 h post-vistusertib, 50 mg bd 3/7 in addition to paclitaxel (C1D8), P = 0.0495) was 53%. For the same molecule, the “Change of p-AKT in PRP after single dose of vistusertib alone” value ([1]; C1D4, 50 mg) was “non-significant reduction”, the “Hyperglycaemia, all grades, % of patients” value [4] was 11% and the “Hyperglycaemia, grade 3/4, % of patients” value [4] was 1%. For the same molecule, the AUC(0-t) ([5]; 25 mg) was 2090 ng·h/mL, the Cmax ([5]; 25 mg) was 579 ng/mL and the half-life ([5]; 25 mg) was 3.3 h. The AUC(0-t) ([5]; 50 mg) was 2600 ng·h/mL, the Cmax ([5]; 50 mg) was 840 ng/mL and the half-life ([5]; 50 mg) was 1.8 h. It also gave an AUC(0-t) ([5]; 75 mg) of 7540 ng·h/mL, a Cmax ([5]; 75 mg) of 1840 ng/mL and a half-life ([5]; 75 mg) of 2.7 h. It also gave an AUC(0-t) ([5]; 100 mg) of 7560 ng·h/mL, a Cmax ([5]; 100 mg) of 1960 ng/mL and a half-life ([5]; 100 mg) of 3 h. The half-life [6] was “short half-life”, the “RECIST response, N with PR” value ([7]; LUNG Expansion (25 mg AZD2014/80 mg Paclitaxel), 24 patients) was 8 and the “Patients with reduction in the size of their tumour” value [7, 13] was 78%. The “Patients with reduction in the size of their tumour, number” value [7, 13] was “Eighteen of the 23”, the “Median progression-free survival (mPFS)” value [7, 14] was 5.8 months and the “RECIST responses (partial response), patients” value [7, 14] was 8/23. For the same molecule, the RECIST response rate ([7]; sqNSCLC expansion, 25 mg vistusertib bd 3/7 days + paclitaxel 80 mg/m^2, 23 patients) was 35%, the “Patients with reduction in size of their tumour” value ([8]; HGSOC expansion at RP2D) was 76% and the “Patients with reduction in size of their tumour, number” value ([8]; HGSOC expansion at RP2D) was 19 of 25. The “GCIG CA125 responses, patients” value [8, 15] was 16/25, the “Median progression-free survival (mPFS)” value [8, 15] was 5.8 months and the “RECIST responses (partial response), patients” value [8, 15] was 13/25. The “GCIG CA125 response rate” value [8, 16] was 64%, the RECIST response rate [8, 16] was 52% and the “RECIST response, N with PR” value ([8]; OVARIAN Expansion (50 mg AZD2014/80 mg Paclitaxel), 27 patients) was 13 PR. For the same molecule, the “AUC versus dose of vistusertib” value [9] was “approximately dose proportional”, the “Drug-drug PK interaction on drug exposure, combination versus either agent alone” value [9] was “no drug-drug PK interaction” and the “Recommended phase II dose (RP2D) of vistusertib” value ([10]; bd 3/7 days for 6/7 weeks, with 80 mg/m^2 weekly paclitaxel) was 50 mg. For the same molecule, the Dose-limiting toxicities ([10]; in vivo) was “rash”, the Dose-limiting toxicities ([10]; schedule A (bd 3/7 days) with weekly paclitaxel 80 mg/m^2) was “fatigue and mucositis” and the “Maximally tolerated dose (MTD) of vistusertib” value ([10]; schedule A, bd 3/7 days for 6/7 weeks, with 80 mg/m^2 weekly paclitaxel) was 50 mg. For the same molecule, the “Maximally tolerated dose (MTD) of vistusertib” value ([10]; schedule B, bd 2/7 days for 6/7 weeks, with 80 mg/m^2 weekly paclitaxel) was 75 mg, the “Effect of the combination of vistusertib and paclitaxel on growth” value [11] was “additive effect” and the “Abdominal cramps/pain, % of patients” value [12, 17] was 8%. The “Alopecia, % of patients” value [12, 17] was 54%, the “Haemoptysis, % of patients” value [12, 17] was 4% and the “Aches and pain, % of patients” value [12, 18] was 12%. The “Alopecia, % of patients” value [12, 18] was 12% and the “Tolerated dose of vistusertib in sqNSCLC” value ([12]; human, in vivo) was 25 mg.
